Experimental data from patent US11826402B2, “Combination therapy involving antibodies against claudin 18.2 for treatment of metastatic pancreatic adenocarcinoma” (Astellas Pharma Inc., priority 2013, dated 2023).
≈ marks a conversion by molar mass, not a printed value.

Experiments:
[1] = tested on: Capan1-LVT; assay: Inhibition of proliferation (XTT viability assay, 4 days); format: cell-based; conditions: Homo sapiens, 96 h, 4 days exposure
Method: To analyze dose-response curves of each chemotherapeutic agent, a proliferation assay was performed.
Cells were seeded in 96 well plates and after 4-6 hours gemcitabine or oxaliplatin was added in following concentrations: 1000, 500, 250, 100 and 20 ng/ml. The proliferation assay was incubated for 4 days at 37° C. and 5% CO2. 50 μl XTT complete reagent (50 parts XTT+1 part coupl. reagent mixed) was added and incubated at 37° C. Measurement of absorbance (cells plus supernatant) was done with the Tecan Safire after 3 h and 4 h. Inhibition of proliferation was calculated compared to medium values set as 100%. EC50 values for gemcitabine and oxaliplatin were calculated in the GraphPad Prism program.

[2] = tested on: LVT pancreatic cancer cell lines; assay: IMAB362-mediated ADCC assay, LVT pancreatic cancer cell lines and corresponding parental cell lines; format: cell-based, human; conditions: for ADCC EC50 / ADCC Max. lysis: at least 2 donors
Method: For ADCC assays pancreatic cancer cell lines were transiently transfected with luciferase RNA. This luciferase RNA (pST1-luc2mut-2 hBgUTR-A121-EciI vector (pST1-109)) was produced with an ARCA cap and dissolved in H2O. RNA was stored in 22 μl aliquots at −80° C. For all pancreas cell lines the optimal electroporation conditions were determined resulting in highest transfection rates and viability of the cells. In each assay cells were detached with PBS/5 mM EDTA and 2.5×10^6 cells dissolved in 250 μl X-Vivo were mixed in ice-cold cuvettes with 10 μg RNA. Cells were immediately electroporated (GenePulser Xcell, Biorad) and resuspended in pre-warmed Assay-medium adjusting the cells to 5×10^5 cells/ml. Tested electroporation conditions were for all cell lines: • EP1: 250 V, 475 μF • EP2: 200 V, 300 μF • EP3: 150 V, 300 μF • EP4: 200 V, 400 μF • EP5: 250 V, 950 μF • Control: 0 V, 0 μF
The viability of the cells was determined directly after electroporation using CASY or by staining cells with Trypan blue and determining the percentage of dead cells in the Neubauer chamber. Cells were seeded in quadruplicates in white 96-well plates (2.5×10^4 cells/well) and incubated for 24 h. Subsequently, luciferase activity was measured in a luminometer (Tecan Infinite200) after addition of luciferin mix for 90 min. Transfection was successful and consequently ADCC measurable, if RLU values >1.000 were obtained.
Pancreatic cancer target cells were seeded two days in advance in flasks to obtain 80-90% confluent cultures on the day ADCC started. […] NUGC-4 sub 10cH11 subE10 Luci #2 cells (8000 cells/well) were seeded in addition as positive controls in all assays. Cells were cultivated for 4-6 h before addition of antibody and purified PBMCs. PBMCs were prepared from fresh human buffy coat obtained from healthy donors. About 3× 20-25 ml blood was diluted (1:2) with PBS and carefully layered on 4×15 ml Ficol-Paque Plus (GE Healthcare) in 50 ml Falcon tubes. Gradients were centrifuged (25 min, 700 g). After centrifugation, peripheral blood mononuclear cells (PBMC) were collected from the interphase, washed in PBS/2 mM EDTA, centrifuged (5 min, 468 g), again resuspended in PBS/2 mM EDTA and centrifuged (10 min, 208 g) to remove the platelets. The pellets were resuspended in 50 ml PBS/2 mM EDTA and cells were counted. PBMCs were centrifuged (5 min, 468 g) and resuspended in X-Vivo-15 culture medium at a concentration of 1.6×10^7 cells/ml for addition to the pancreas cells and 1.28×10^7 cells/ml for addition to the NUGC-4 sub 10cH11 subE10 Luci #2 cells.
Of each dilution 25 μl was added in quadruplicates to the target cells. PBS without antibodies was added in the medium and lysis control wells. Subsequently, 25 μl PBMCs were added to each well (E:T ratio=40:1) and plates were incubated for 24 h±1 h at 37° C., 5% CO2.
The next day, 10 μl 8% Triton X100/PBS solution was added to the lysis control wells and 10 μl PBS in all other wells. Finally, 50 μl freshly prepared luciferin stock solution was added (160 mM HEPES, 1×PBS, 3.84 mg/ml D-Luciferin (BD Biosciences)) to each well and plates were incubated for 80 min at RT in the dark. Luminescence resulting from the oxidation of […] by the luciferase of viable cells was measured using a microplate-reader (Infinite200, Tecan, Switzerland). Percentage of cellular cytotoxicity was calculated using the following formula: Specific killing (%)=100−[(RLUsample−RLUtriton)/(RLUmedium ctrl−RLUtriton)×100]
ADCC analyses were also performed with LVT pancreatic cancer cell lines and their corresponding parental cell lines (FIG. 22B-F).

[3] = tested on: AsPC1; assay: IMAB362-mediated ADCC assay; format: cell-based, human; conditions: at least 2 donors
[4] = tested on: KCI-MOH; assay: IMAB362-mediated ADCC assay; format: cell-based, human; conditions: at least 2 donors
[5] = tested on: Panc03.27; assay: IMAB362-mediated ADCC assay; format: cell-based, human; conditions: at least 2 donors
[6] = tested on: MiaPaCa2; assay: IMAB362-mediated CDC assay (healthy human serum pool); format: cell-based
Method: In addition, the LVT cell lines and the parental strains were tested in CDC.
CHO-K1 cells stably transfected with CLDN18.2 (p740) and luciferase were used as assay positive controls in each assay (FIG. 23A). […] This is most likely due to the fact that neoplastic cells over-express one or more membrane bound complement inhibitory proteins (e.g. CD46, CD55 and CD59) (Geis et al., Curr Cancer Drug Targets, 2010 10:922-931). However, if expression of these inhibitory proteins on tumor cells affect clinical outcome of an antibody therapy is still contradictory (Dzietczenia et al. Med. Oncol. 2010, 27:743-6; Weng and Levy at al., Blood 2001 98:1352-7). In addition to the endogenous cell lines, all the LVT cell lines were tested in CDC assays.

Nc1ccn([C@@H]2O[C@H](CO)[C@@H](O)C2(F)F)c(=O)n1 [gemcitabine, 4-amino-1-(2-deoxy-2,2-difluoro-β-D-erythro-pentofuranosyl)pyrimidin-2(1H)-one]
IC50 [1]: ~0.001 µg/mL (≈ 3.8 nM)

IMAB362: chimeric IgG1 antibody directed against CLDN18.2, developed by Ganymed Pharmaceuticals AG
ADCC EC50 ([2]; BxPC3 (ATCC)): n.m.
ADCC Max. lysis ([2]; BxPC3 (ATCC)): n.m.
ADCC EC50 ([2]; BxPC3 (ECACC)): n.m.
ADCC EC50 ([2]; BxPC3 LVT): 0.0477 ± 0.0191 µg/mL
ADCC Max. lysis ([2]; BxPC3 LVT): 90.6 ± 6.4%
ADCC EC50 ([2]; CAPAN1-LVT): 0.06503 ± 0.0351 µg/mL
ADCC Max. lysis ([2]; CAPAN1-LVT): 92.6 ± 5.5%
ADCC EC50 ([2]; CAPAN1): n.m.
ADCC Max. lysis ([2]; CAPAN1): n.m.
ADCC EC50 ([2]; DANG-LVT): 0.0523 ± 0.0277 µg/mL
ADCC Max. lysis ([2]; DANG-LVT): 85.9 ± 11.7%
ADCC EC50 ([2]; HPAC-LVT): 0.1168 ± 0.1054 µg/mL
ADCC Max. lysis ([2]; HPAC-LVT): 76.2 ± 19.4%
ADCC Max. lysis ([2]; HPAC): 0-22.2%
target dependence of ADCC ([2]; LVT cell lines versus CLDN18.2 negative parental cell lines): only CLDN18.2 positive target cells are killed
ADCC killing ([2]; LVT pancreas CA cell lines): killed upon addition of small amounts of antibody at high rates
ADCC EC50 ([2]; MiaPaCa2-LVT): 0.0234 ± 0.0123 µg/mL
ADCC Max. lysis ([2]; MiaPaCa2-LVT): 78.1 ± 6.0%
ADCC EC50 ([2]; MiaPaCa2): n.m.
ADCC EC50 ([2]; Patu8902-LVT): 0.0492 ± 0.0862 µg/mL
ADCC Max. lysis ([2]; Patu8902-LVT): 74.1 ± 16.4%
ADCC EC50 ([2]; Patu8902): n.m.
ADCC EC50 ([2]; Suit2-LVT): 0.0732 ± 0.0147 µg/mL
ADCC Max. lysis ([2]; Suit2-LVT): 81.2 ± 7.6%
ADCC EC50 ([2]; Suit2): n.m.
ADCC Max. lysis ([2]; Suit2): n.m.
ADCC EC50 ([2]; YAPC-LVT): 0.0295 ± 0.0157 µg/mL
ADCC Max. lysis ([2]; YAPC-LVT): 91.5 ± 6.3%
ADCC EC50 ([2]; YPAC): n.m.
ADCC Max. lysis ([2]; YPAC): n.m.
ADCC EC50 [3]: n.m..
ADCC Max. lysis [3]: n.m.
ADCC EC50 [4]: n.m.
ADCC EC50 [5]: n.m.
ADCC Max. lysis [5]: n.m.
CDC EC50 [6]: n.m.
CDC Max. lysis [6]: n.m.
